Measured values reported in the supplement of paper PMC4862054.

What was measured:
Conditions in all cases: incubation time: 72 h
BT-549 [1] = experiment: normalised viability (% of control), CellTiter-Blue; higher = more viable cells (about 100 = DMSO control)
How it was run: (§1)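 Each value is normalised viability at a single listed concentration of the series. Breast cancer cell lines in 384-well plates were incubated 72 h with compound and read by CellTiter-Blue fluorescence at 560/590 nm, with vehicle set to 100 and a positive kill control to 0 on every plate.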

CAL-148 [2] = experiment: as above
How it was run: as §1

MDA-MB-453 [3] = experiment: as above
How it was run: as §1

MFM-223 [4] = experiment: as above
How it was run: as §1

BT-474 = experiment: as above
How it was run: as §1

BT-549 [5] = experiment: as above; remark: listed apart in the source
How it was run: as §1

CAL-120 [6] = experiment: as above
How it was run: as §1

CAL-148 [7] = experiment: as above; remark: listed apart in the source
How it was run: as §1

CAL-51 = experiment: as above
How it was run: as §1

CAL-85-1 = experiment: as above
How it was run: as §1

DU-4475 = experiment: as above
How it was run: as §1

HCC1143 = experiment: as above
How it was run: as §1

HCC1599 = experiment: as above
How it was run: as §1

HCC1937 = experiment: as above
How it was run: as §1

HDQ-P1 = experiment: as above
How it was run: as §1

Hs578T = experiment: as above
How it was run: as §1

MDA-MB-231 = experiment: as above
How it was run: as §1

MDA-MB-436 = experiment: as above
How it was run: as §1

MDA-MB-453 [8] = experiment: as above; remark: listed apart in the source
How it was run: as §1

MDA-MB-468 = experiment: as above
How it was run: as §1

MFM-223 [9] = experiment: as above; remark: listed apart in the source
How it was run: as §1

SK-BR-3 = experiment: as above
How it was run: as §1

CAL-120 [10] = experiment: drug sensitivity score (DSS), CellTox Green (DSS (AUC-based score)); higher = stronger drug effect (viability inhibition or cytotoxicity); extreme values may be limits of the assay
How it was run: (§2)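 Plates with 384 wells held compound at 5 concentrations in 10-fold steps over a 10,000-fold range specific to each compound. Breast cancer cell lines were added in 20 µl suspension and incubated 72 h, then read for CellTox Green and CellTiter-Glo signals, with each plate normalised to 0.1 % DMSO and a positive kill control. The drug sensitivity score is based on the area under the fitted dose-response curve.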

CAL-148 [11] = experiment: as above
How it was run: as §2

CNCc1ccc(-c2[nH]c3cc(F)cc4c3c2CCNC4=O)cc1 [Rucaparib]
Conditions	normalised viability [%]
BT-474, 10 nM	108
BT-474, 1000 nM	111
BT-474, 10000 nM	102
BT-549 [1], 100 nM	112
BT-549 [5], 10 nM	100
BT-549 [5], 1000 nM	107
BT-549 [5], 10000 nM	93.8
CAL-51, 3 nM	119
CAL-51, 30 nM	114
CAL-51, 100 nM	110
CAL-85-1, 3 nM	93.2
CAL-85-1, 30 nM	84.2
CAL-85-1, 100 nM	94.6
CAL-120 [6], 10 nM	77.4
CAL-120 [6], 1000 nM	81
CAL-120 [6], 10000 nM	76.8
CAL-148 [2], 10 nM	83.4
CAL-148 [7], 3 nM	90.5
CAL-148 [7], 30 nM	87.6
CAL-148 [7], 100 nM	92.6
DU-4475, 3 nM	84
DU-4475, 30 nM	96.6
DU-4475, 100 nM	83
HCC1143, 10 nM	84.3
HCC1143, 1000 nM	94.2
HCC1143, 10000 nM	89.9
HCC1599, 10 nM	95.8
HCC1599, 1000 nM	128
HCC1599, 10000 nM	96.2
HCC1937, 10 nM	55.9
HCC1937, 1000 nM	72.2
HCC1937, 10000 nM	52.7
HDQ-P1, 3 nM	87
HDQ-P1, 30 nM	88
HDQ-P1, 100 nM	88.2
Hs578T, 10 nM	112
Hs578T, 1000 nM	107
Hs578T, 10000 nM	94.4
MDA-MB-231, 10 nM	99.2
MDA-MB-231, 1000 nM	84.3
MDA-MB-231, 10000 nM	75.4
MDA-MB-436, 10 nM	103
MDA-MB-436, 1000 nM	62.6
MDA-MB-436, 10000 nM	98.2
MDA-MB-453 [3], 10 nM	98.8
MDA-MB-453 [8], 3 nM	111
MDA-MB-453 [8], 30 nM	89.3
MDA-MB-453 [8], 100 nM	110
MDA-MB-468, 10 nM	103
MDA-MB-468, 1000 nM	105
MDA-MB-468, 10000 nM	77.5
MFM-223 [4], 100 nM	109
MFM-223 [9], 10 nM	95.4
MFM-223 [9], 1000 nM	99.2
MFM-223 [9], 10000 nM	61.5
SK-BR-3, 10 nM	97.5
SK-BR-3, 1000 nM	98.2
SK-BR-3, 10000 nM	78.5

Conditions	drug sensitivity score
CAL-120 [10]	0
CAL-148 [11]	0

N[C@@H](CSC(c1ccccc1)(c1ccccc1)c1ccccc1)C(=O)O [S-trityl-L-cysteine]
Conditions	normalised viability [%]
BT-474, 40 nM	111
BT-474, 4000 nM	94
BT-474, 40000 nM	25.9
BT-549 [1], 400 nM	75.4
BT-549 [5], 40 nM	83.3
BT-549 [5], 4000 nM	92.2
BT-549 [5], 40000 nM	24
CAL-51, 12 nM	87
CAL-51, 120 nM	90.5
CAL-51, 400 nM	87
CAL-85-1, 12 nM	105
CAL-85-1, 120 nM	106
CAL-85-1, 400 nM	101
CAL-120 [6], 40 nM	110
CAL-120 [6], 4000 nM	42.4
CAL-120 [6], 40000 nM	35.2
CAL-148 [2], 40 nM	106
CAL-148 [7], 12 nM	112
CAL-148 [7], 120 nM	114
CAL-148 [7], 400 nM	114
DU-4475, 12 nM	117
DU-4475, 120 nM	92.9
DU-4475, 400 nM	102
HCC1143, 40 nM	134
HCC1143, 4000 nM	113
HCC1143, 40000 nM	58.6
HCC1599, 40 nM	94.9
HCC1599, 4000 nM	99.3
HCC1599, 40000 nM	102
HCC1937, 40 nM	98.7
HCC1937, 4000 nM	24.8
HCC1937, 40000 nM	22.6
HDQ-P1, 12 nM	94.4
HDQ-P1, 120 nM	92.5
HDQ-P1, 400 nM	110
Hs578T, 40 nM	114
Hs578T, 4000 nM	36.6
Hs578T, 40000 nM	16.8
MDA-MB-231, 40 nM	86.8
MDA-MB-231, 4000 nM	27.9
MDA-MB-231, 40000 nM	25.9
MDA-MB-436, 40 nM	90.2
MDA-MB-436, 4000 nM	78.6
MDA-MB-436, 40000 nM	58.2
MDA-MB-453 [3], 40 nM	88.8
MDA-MB-453 [8], 12 nM	91.7
MDA-MB-453 [8], 120 nM	80.9
MDA-MB-453 [8], 400 nM	101
MDA-MB-468, 40 nM	102
MDA-MB-468, 4000 nM	34.5
MDA-MB-468, 40000 nM	34.6
MFM-223 [4], 400 nM	99.8
MFM-223 [9], 40 nM	102
MFM-223 [9], 4000 nM	100
MFM-223 [9], 40000 nM	78.2
SK-BR-3, 40 nM	112
SK-BR-3, 4000 nM	18.3
SK-BR-3, 40000 nM	20.1

Conditions	drug sensitivity score
CAL-120 [10]	0
CAL-148 [11]	0
